Blank lines part the entries; values can stand above or below the compound they belong to.
Assays:
[1] = clinical dosage of amperozide 10 mg/day; read-out: plasma maximal concentration (Cmax); cited from earlier work
[2] = system: H22 murine hepatocarcinoma cell line; test: In vitro cell proliferation assay (CellTiter-Glo) in H22 murine hepatocarcinoma cell line; assay type: cell-based; conditions: for anti-proliferative effect on H22 cell line: 1 μM and 0.1, in words; for viability at 0.1 µM / viability at 1 µM: H22, 72 h; for viability at 0.1 µM: read-out: Cell viability (%), 0.1 μM, 72 h, H22 cells; for viability at 1 µM: read-out: Cell viability (%), 1 μM, 72 h, H22 cells
Procedure: Methods: • (1) Cells were cultured in RPMI-1640 medium supplemented with 10% FBS, 100 U/ml penicillin, and […] streptomycin at 37° C. and 5% CO2 atmosphere. […] The anti-proliferative activity of amperozide, nepicastat, and paclitaxel was tested in the H22 murine hepatocarcinoma cell line according to the experimental procedure described in Example 1.

[3] = system: H22 murine hepatic cancer xenograft; test: In vivo tumor growth, H22 murine hepatic cancer xenograft model (Example 4); set-up: species or system Mouse (Mus Musculus)
Procedure: (§1) Experiments using the murine H22, CT-26 and EMT-6 xenograft models were performed as described below.
(§2) Cells were cultured in RPMI-1640 medium supplemented with 10% FBS at 37° C. in an atmosphere of 5% CO2 in air. The tumor cells were routinely subcultured three times weekly. The cells that grew in an exponential growth phase were harvested and counted for tumor inoculation.
(§3) Mice (female, 6-8 weeks old) were inoculated subcutaneously at the right flank with the tumor cells (H22, EMT-6, or CT-26) in 0.1 mL PBS for tumor development. When the tumor volume reached approximately 60-80 mm^3, the mice were grouped randomly according to the animal body weight and tumor volume. Each group had 5-8 tumor-bearing mice.
(§4) The major endpoint was to determine if tumor growth could be delayed or mice could be cured. Tumor volume was measured three times weekly in two dimensions using a caliper, and the volume was expressed in mm^3 using the formula: V=0.5 a×b^2, where a and b are the long and short diameters of the tumor, respectively. The T/C value (in percent) was an indication of antitumor effectiveness, where T and C were the mean volume of the treated and control groups, respectively, on a given day. The T-C value was calculated according to TV. T-C was calculated with T as the median time (in days) required for the treatment group tumors to reach a predetermined size (e.g., TV as 1000 mm^3), and C as the median time (in days) for the control group tumors to reach the same size. The body weights were measured and recorded at the same time to observe the toxicity of the compounds. The animals were sacrificed at the termination of the study.
(§5) Summary statistics, including mean and the standard error of the mean (SEM), are provided for the tumor volume of each group at each time point. A two-way analysis of variance (ANOVA) was performed to compare body weight, tumor volume and tumor volume change. A one-way ANOVA was performed to compare tumor weight. All data were analyzed using GraphPad Prism 5. p<0.05 was considered to be statistically significant.
The anti-cancer activity of amperozide and nepicastat was evaluated in a H22 murine hepatic cancer xenograft model according to the experimental procedure described in Example 2. Anti-cancer activity was evaluated by measuring changes in tumor volume.

[4] = system: H22 murine hepatic cancer xenograft; test: In vivo tumor growth, H22 murine hepatic cancer xenograft model, compared with anti-PD-1 mAb (Example 5); set-up: species or system Mouse (Mus Musculus); conditions: p.o.; for Tumor Volume (mm^3): QD x 20 days; for T/C (%) / TGI (%) tumor growth inhibition: QD
Procedure: as §1, §2, §3, §4, §5
The anti-cancer activity of nepicastat, etamicastat and anti-PD-1 monoclonal antibody (mAb) was evaluated in a H22 murine hepatic cancer xenograft model according to the experimental procedure described in Example 2.

IC50 ([2]; Mus musculus, calculated from FIG. 1, read-out: IC50 in H22 murine hepatocarcinoma cells proliferation): 38.8 µM
SMILES: CCNC(=O)N1CCN(CCCC(c2ccc(F)cc2)c2ccc(F)cc2)CC1 [Amperozide, amperozide]
Cmax [1]: ~100 nM
anti-proliferative effect on H22 cell line [2]: did not show any significant anti-proliferative effects
viability at 0.1 µM ([2]; Mus musculus): 100%
viability at 1 µM ([2]; Mus musculus): 95.1%
T-C (days) (Reach 1000 mm^3) ([3]; Amperozide 2 mg/kg): 2 days
Tumor Volume ([3]; Amperozide 2 mg/kg, day 5): 80 ± 9 mm^3
Tumor Volume ([3]; Amperozide 2 mg/kg, day 7): 166 ± 19 mm^3
Tumor Volume ([3]; Amperozide 2 mg/kg, day 9): 355 ± 36 mm^3
Tumor Volume ([3]; Amperozide 2 mg/kg, day 12): 576 ± 48 mm^3
Tumor Volume ([3]; Amperozide 2 mg/kg, day 14): 806 ± 31 mm^3
Tumor Volume ([3]; Amperozide 2 mg/kg, day 16): 1,219 ± 39 mm^3
T/C (%) ([3]; Amperozide 2 mg/kg, day 19): 64.4%
TGI (%) tumor growth inhibition ([3]; Amperozide 2 mg/kg, day 19): 35.6%
Tumor Volume ([3]; Amperozide 2 mg/kg, day 19): 1,948 ± 158 mm^3
Tumor Volume ([3]; Amperozide 2 mg/kg, day 19, listed as amperozide): 1948 mm^3
T-C (days) (Reach 1000 mm^3) ([3]; Amperozide 6 mg/kg): 1 days
Tumor Volume ([3]; Amperozide 6 mg/kg, day 5): 80 ± 9 mm^3
Tumor Volume ([3]; Amperozide 6 mg/kg, day 7): 174 ± 26 mm^3
Tumor Volume ([3]; Amperozide 6 mg/kg, day 9): 367 ± 51 mm^3
Tumor Volume ([3]; Amperozide 6 mg/kg, day 12): 602 ± 77 mm^3
Tumor Volume ([3]; Amperozide 6 mg/kg, day 14): 1,004 ± 75 mm^3
Tumor Volume ([3]; Amperozide 6 mg/kg, day 16): 1,625 ± 101 mm^3
T/C (%) ([3]; Amperozide 6 mg/kg, day 19): 95.9%
TGI (%) tumor growth inhibition ([3]; Amperozide 6 mg/kg, day 19): 4.1%
Tumor Volume ([3]; Amperozide 6 mg/kg, day 19): 2,903 ± 315 mm^3

SMILES: NCCc1c[nH]c(=S)n1[C@H]1COc2c(F)cc(F)cc2C1 [Etamicastat, etamicastat]
Tumor Volume (mm^3) ([4]; Etamicastat 80 mg/kg, day 3): 56.40 ± 4.21 mm^3
Tumor Volume (mm^3) ([4]; Etamicastat 80 mg/kg, day 6): 142.74 ± 14.75 mm^3
Tumor Volume (mm^3) ([4]; Etamicastat 80 mg/kg, day 9): 325.41 ± 39.55 mm^3
Tumor Volume (mm^3) ([4]; Etamicastat 80 mg/kg, day 13): 437.62 ± 48.77 mm^3
Tumor Volume (mm^3) ([4]; Etamicastat 80 mg/kg, day 16): 645.29 ± 50.41 mm^3
Tumor Volume (mm^3) ([4]; Etamicastat 80 mg/kg, day 19): 892.56 ± 131.83 mm^3
Tumor Volume (mm^3) ([4]; Etamicastat 80 mg/kg, day 22): 1210.52 ± 197.23 mm^3
Tumor Volume (mm^3) ([4]; Etamicastat 80 mg/kg, day 22, listed as etamicastat): 1,210.52 mm^3
T/C (%) ([4]; Etamicastat 80 mg/kg, day 22): 70.42%
TGI (%) tumor growth inhibition ([4]; Etamicastat 80 mg/kg, day 22): 29.58%
Tumor Volume (mm^3) ([4]; Etamicastat 160 mg/kg, day 3): 56.42 ± 3.25 mm^3
Tumor Volume (mm^3) ([4]; Etamicastat 160 mg/kg, day 6): 134.64 ± 14.18 mm^3
Tumor Volume (mm^3) ([4]; Etamicastat 160 mg/kg, day 9): 270.71 ± 33.96 mm^3
Tumor Volume (mm^3) ([4]; Etamicastat 160 mg/kg, day 13): 513.74 ± 103.91 mm^3
Tumor Volume (mm^3) ([4]; Etamicastat 160 mg/kg, day 16): 825.29 ± 198.51 mm^3
Tumor Volume (mm^3) ([4]; Etamicastat 160 mg/kg, day 19): 1167.51 ± 300.84 mm^3
Tumor Volume (mm^3) ([4]; Etamicastat 160 mg/kg, day 22): 1309.12 ± 492.02 mm^3
Tumor Volume (mm^3) ([4]; Etamicastat 160 mg/kg, day 22, listed as etamicastat): 1,309.12 mm^3
T/C (%) ([4]; Etamicastat 160 mg/kg, day 22): 76.16%
TGI (%) tumor growth inhibition ([4]; Etamicastat 160 mg/kg, day 22): 23.84%

SMILES: CC(=O)O[C@H]1C(=O)[C@@]2(C)[C@H]([C@H](OC(=O)c3ccccc3)[C@]3(O)C[C@H](OC(=O)[C@H](O)[C@@H](NC(=O)c4ccccc4)c4ccccc4)C(C)=C1C3(C)C)[C@]1(OC(C)=O)CO[C@@H]1C[C@@H]2O [Paclitaxel]
anti-proliferative effect on H22 cell line [2]: strong inhibition effect
viability at 0.1 µM ([2]; Mus musculus): 28.4%
viability at 1 µM ([2]; Mus musculus): 20.8%
T-C (days) (Reach 1000 mm^3) ([3]; Paclitaxel 15 mg/kg): 2 days
Tumor Volume ([3]; Paclitaxel 15 mg/kg, day 5): 80 ± 9 mm^3
Tumor Volume ([3]; Paclitaxel 15 mg/kg, day 7): 140 ± 17 mm^3
Tumor Volume ([3]; Paclitaxel 15 mg/kg, day 9): 270 ± 48 mm^3
Tumor Volume ([3]; Paclitaxel 15 mg/kg, day 12): 435 ± 60 mm^3
Tumor Volume ([3]; Paclitaxel 15 mg/kg, day 14): 722 ± 105 mm^3
Tumor Volume ([3]; Paclitaxel 15 mg/kg, day 16): 1,188 ± 206 mm^3
T/C (%) ([3]; Paclitaxel 15 mg/kg, day 19): 65.5%
TGI (%) tumor growth inhibition ([3]; Paclitaxel 15 mg/kg, day 19): 34.5%
Tumor Volume ([3]; Paclitaxel 15 mg/kg, day 19): 1,982 ± 327 mm^3
Tumor Volume ([3]; Paclitaxel 15 mg/kg, day 19, listed as paclitaxel): 1982 mm^3

From patent US11185542B2, “Uses of dopamine beta-hydroxylase (DBH) inhibitors and serotonin receptor (5-HT) antagonists for the treatment of cancer” (Jiangsu Yahong Meditech Co., Ltd., priority 2016, dated 2021)
